From PubChem BioAssay (NCI)
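These data come from cells grown in 96-well plates and exposed to compound for 48 hours at five concentrations. At the TGI there is no net growth.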

Assays:
Assay in all cases: NCI tumour cell line growth inhibition, 48 h
786-0 renal = test system: 786-0 renal
A498 renal = test system: A498 renal
A549 NSCLC = test system: A549 NSCLC
ACHN renal = test system: ACHN renal
BT-549 breast = test system: BT-549 breast
CAKI-1 renal = test system: CAKI-1 renal
CCRF-CEM leukemia = test system: CCRF-CEM leukemia
COLO 205 colon = test system: COLO 205 colon
DU-145 prostate = test system: DU-145 prostate
EKVX NSCLC = test system: EKVX NSCLC
HCC-2998 colon = test system: HCC-2998 colon
HCT-116 colon = test system: HCT-116 colon
HCT-15 colon = test system: HCT-15 colon
HL-60(TB) leukemia = test system: HL-60(TB) leukemia
HOP-62 NSCLC = test system: HOP-62 NSCLC
HOP-92 NSCLC = test system: HOP-92 NSCLC
HS 578T breast = test system: HS 578T breast
HT29 colon = test system: HT29 colon
IGROV1 ovarian = test system: IGROV1 ovarian
K-562 leukemia = test system: K-562 leukemia
KM12 colon = test system: KM12 colon
LOX IMVI melanoma = test system: LOX IMVI melanoma
MALME-3M melanoma = test system: MALME-3M melanoma
MCF7 breast = test system: MCF7 breast
MDA-MB-231 breast = test system: MDA-MB-231 breast
MDA-MB-435 = test system: MDA-MB-435
MDA-N = test system: MDA-N
MOLT-4 leukemia = test system: MOLT-4 leukemia
NCI-H226 lung = test system: NCI-H226 lung
NCI-H23 lung = test system: NCI-H23 lung
NCI-H460 lung = test system: NCI-H460 lung
NCI-H522 lung = test system: NCI-H522 lung
NCI/ADR-RES ovarian = test system: NCI/ADR-RES ovarian
OVCAR-3 ovarian = test system: OVCAR-3 ovarian
OVCAR-4 ovarian = test system: OVCAR-4 ovarian
OVCAR-5 ovarian = test system: OVCAR-5 ovarian
OVCAR-8 ovarian = test system: OVCAR-8 ovarian
PC-3 prostate = test system: PC-3 prostate
RPMI-8226 leukemia = test system: RPMI-8226 leukemia
RXF 393 renal = test system: RXF 393 renal
SF-268 CNS = test system: SF-268 CNS
SF-295 CNS = test system: SF-295 CNS
SF-539 CNS = test system: SF-539 CNS
SK-MEL-2 melanoma = test system: SK-MEL-2 melanoma
SK-MEL-28 melanoma = test system: SK-MEL-28 melanoma
SK-MEL-5 melanoma = test system: SK-MEL-5 melanoma
SK-OV-3 ovarian = test system: SK-OV-3 ovarian
SN12C renal = test system: SN12C renal
SNB-75 CNS = test system: SNB-75 CNS
SR leukemia = test system: SR leukemia
SW-620 colon = test system: SW-620 colon
T-47D breast = test system: T-47D breast
TK-10 renal = test system: TK-10 renal
U251 CNS = test system: U251 CNS
UACC-257 melanoma = test system: UACC-257 melanoma
UACC-62 melanoma = test system: UACC-62 melanoma
UO-31 renal = test system: UO-31 renal
M14 melanoma = test system: M14 melanoma
SNB-19 CNS = test system: SNB-19 CNS

SMILES: CCN(CC)C(=S)SC1C(=O)NC(=O)NC1=O
- TGI (786-0 renal): > 100 µM
- TGI (A498 renal): 6.06 µM
- TGI (A549 NSCLC): > 100 µM
- TGI (ACHN renal): > 100 µM
- TGI (BT-549 breast): > 100 µM
- TGI (CAKI-1 renal): > 100 µM
- TGI (CCRF-CEM leukemia): > 100 µM
- TGI (COLO 205 colon): > 100 µM
- TGI (DU-145 prostate): > 100 µM
- TGI (EKVX NSCLC): > 100 µM
- TGI (HCC-2998 colon): > 100 µM
- TGI (HCT-116 colon): > 100 µM
- TGI (HCT-15 colon): > 100 µM
- TGI (HL-60(TB) leukemia): > 100 µM
- TGI (HOP-62 NSCLC): > 100 µM
- TGI (HOP-92 NSCLC): > 100 µM
- TGI (HS 578T breast): > 100 µM
- TGI (HT29 colon): > 100 µM
- TGI (IGROV1 ovarian): > 100 µM
- TGI (K-562 leukemia): > 100 µM
- TGI (KM12 colon): > 100 µM
- TGI (LOX IMVI melanoma): > 100 µM
- TGI (MALME-3M melanoma): > 100 µM
- TGI (MCF7 breast): > 100 µM
- TGI (MDA-MB-231 breast): > 100 µM
- TGI (MDA-MB-435): > 100 µM
- TGI (MDA-N): > 100 µM
- TGI (MOLT-4 leukemia): > 100 µM
- TGI (NCI-H226 lung): > 100 µM
- TGI (NCI-H23 lung): > 100 µM
- TGI (NCI-H460 lung): 12.7 µM
- TGI (NCI-H522 lung): > 100 µM
- TGI (NCI/ADR-RES ovarian): > 100 µM
- TGI (OVCAR-3 ovarian): > 100 µM
- TGI (OVCAR-4 ovarian): > 100 µM
- TGI (OVCAR-5 ovarian): > 100 µM
- TGI (OVCAR-8 ovarian): > 100 µM
- TGI (PC-3 prostate): > 100 µM
- TGI (RPMI-8226 leukemia): > 100 µM
- TGI (RXF 393 renal): > 100 µM
- TGI (SF-268 CNS): > 100 µM
- TGI (SF-295 CNS): > 100 µM
- TGI (SF-539 CNS): > 100 µM
- TGI (SK-MEL-2 melanoma): > 100 µM
- TGI (SK-MEL-28 melanoma): > 100 µM
- TGI (SK-MEL-5 melanoma): > 100 µM
- TGI (SK-OV-3 ovarian): > 100 µM
- TGI (SN12C renal): > 100 µM
- TGI (SNB-75 CNS): > 100 µM
- TGI (SR leukemia): > 100 µM
- TGI (SW-620 colon): > 100 µM
- TGI (T-47D breast): > 100 µM
- TGI (TK-10 renal): > 100 µM
- TGI (U251 CNS): > 100 µM
- TGI (UACC-257 melanoma): > 100 µM
- TGI (UACC-62 melanoma): > 100 µM
- TGI (UO-31 renal): > 100 µM

SMILES: Cc1cc(C)c2c(=O)n(CC(O)CN3CCN(CCOCCO)CC3)sc2n1 (centres undefined)
- TGI (786-0 renal): 30.6 µM
- TGI (A498 renal): 38.9 µM
- TGI (A549 NSCLC): > 100 µM
- TGI (ACHN renal): 35 µM
- TGI (BT-549 breast): 31.1 µM
- TGI (CAKI-1 renal): > 100 µM
- TGI (CCRF-CEM leukemia): > 100 µM
- TGI (COLO 205 colon): 34.1 µM
- TGI (DU-145 prostate): 48.2 µM
- TGI (EKVX NSCLC): 35.3 µM
- TGI (HCT-116 colon): 30.8 µM
- TGI (HCT-15 colon): > 100 µM
- TGI (HL-60(TB) leukemia): 54.4 µM
- TGI (HOP-62 NSCLC): 70.6 µM
- TGI (HOP-92 NSCLC): 40.6 µM
- TGI (HS 578T breast): 77.8 µM
- TGI (HT29 colon): 39.6 µM
- TGI (IGROV1 ovarian): > 100 µM
- TGI (K-562 leukemia): > 100 µM
- TGI (KM12 colon): 48 µM
- TGI (LOX IMVI melanoma): 37.1 µM
- TGI (M14 melanoma): 33.5 µM
- TGI (MALME-3M melanoma): 35.4 µM
- TGI (MCF7 breast): 34.2 µM
- TGI (MDA-MB-231 breast): 37.6 µM
- TGI (MDA-MB-435): 32.8 µM
- TGI (MDA-N): 29.2 µM
- TGI (MOLT-4 leukemia): 73.5 µM
- TGI (NCI-H226 lung): > 100 µM
- TGI (NCI-H23 lung): 30.3 µM
- TGI (NCI-H460 lung): 39 µM
- TGI (NCI-H522 lung): 32.1 µM
- TGI (NCI/ADR-RES ovarian): > 100 µM
- TGI (OVCAR-3 ovarian): 41.3 µM
- TGI (OVCAR-4 ovarian): 34.5 µM
- TGI (OVCAR-5 ovarian): 34.8 µM
- TGI (OVCAR-8 ovarian): 39.9 µM
- TGI (PC-3 prostate): 40.7 µM
- TGI (RXF 393 renal): 21 µM
- TGI (SF-268 CNS): 39.8 µM
- TGI (SF-295 CNS): > 100 µM
- TGI (SF-539 CNS): 38.4 µM
- TGI (SK-MEL-2 melanoma): 39.9 µM
- TGI (SK-MEL-28 melanoma): 35.7 µM
- TGI (SK-MEL-5 melanoma): 34.5 µM
- TGI (SK-OV-3 ovarian): 60.7 µM
- TGI (SN12C renal): 37.1 µM
- TGI (SNB-19 CNS): > 100 µM
- TGI (SNB-75 CNS): 5.78 µM
- TGI (SR leukemia): > 100 µM
- TGI (SW-620 colon): > 100 µM
- TGI (T-47D breast): 47.2 µM
- TGI (TK-10 renal): 31.3 µM
- TGI (U251 CNS): 36.3 µM
- TGI (UACC-257 melanoma): 24.6 µM
- TGI (UACC-62 melanoma): 32.7 µM
- TGI (UO-31 renal): 47.8 µM
